According to patent US20020115111A1, “Compounds” (SmithKline Beecham Corporation, priority 1994, published 2002):

Key:
[1] = biological target: high affinity rolipram binding form of PDE IV (HPDE IV); experiment: [3H]-rolipram binding assay (competition for high affinity site); design: species or system rat; conditions: for IC50: competition with 1 nM [3H]-rolipram, 1 hour at 30° C.; for High/Low Ratio (IC50 high affinity form divided by IC50 low affinity form): HPDE IV IC50 / LPDE IV IC50
Method: (§1) Inhibition of PDE IV catalytic activity can thus be used as an index of the potency of compounds at LPDE IV.
The assay was run for 1 hour at 30° C. The reaction was terminated and bound ligand was separated from free ligand using a Brandel cell harvester. Competition for the high affinity binding site was assessed under conditions that were identical to those used for measuring low affinity PDE activity, expect that [^3H]-cAMP was not present.

[2] = biological target: T1, low affinity rolipram binding form of PDE IV (LPDE IV), human monocyte PDE IV (Homo sapiens, UniProt P27815); experiment: PDE IV catalytic activity assay (low affinity form); assay type: biochemical; conditions: 1 μM [3H]cAMP as substrate
T1 construct: made in house; host or cells: yeast
From the text: as §1

[3] = tested on: TNFα production from isolated human monocytes vs acid secretion in isolated rabbit parietal glands; experiment: therapeutic index, in vitro comparison: suppression of TNFα production vs stimulation of acid secretion; assay type: cell-based
Method: To determine acid secretion, the gastric glands in combination with [^14C]-aminopyrine, various concentrations of selective PDE IV inhibitors, and a threshold concentration of histamine (0.3-1.0 μM) were incubated at 37° C. on a horizontal shaker (110 cycles/min) for 20 minutes according to the procedures of Sack and Spenney (1982). Samples were then centrifuged and radioactivity in aliquots of the supernatant fraction and pellet were determined. Aminopyrine ratios were calculated as described by Sack and Spenney (1982). The data were expressed as a percent of a response produced by a maximal concentration of histamine (100 μM). EC50 values were determined by linear interpolation using the maximum response obtained for each compound.
TNFα inhibition was assessed in human peripheral blood monocytes which were purified (Collata) from freshly obtained buffy coats or plasma-phoresis residues of blood from normal human donors. Monocytes were plated at density of 1×10^6 cells/ml medium/well in 24-well multi-dishes. […]
Levels of TNFα were measured using a ELISA (Winston) employing a murine monoclonal anti-human TNFα antibody (see below) as the capture antibody and a polyclonal rabbit anti-human TNFα as the second antibody. […] TNFα levels in samples were calculated from a standard curve generated with recombinant human TNFα produced in E. coli. […]

[4] = clinical studies; cited from earlier work
acid secretion = conditions: rats, particularly in combination with an activator of adenylate cyclase such as histamine; cited from earlier work
[5] = tested on: [3H]-rolipram binding sites in rat brain homogenates; experiment: high affinity [3H]-rolipram binding sites in rat brain homogenates (Schneider 1986); conditions: Kd vs Ki
From the text: In 1986, Schneider and colleagues described the presence and characteristics of high affinity, stereoselective [^3H]-rolipram binding sites in rat brain homogenates, Although it was assumed that these binding sites represented the catalytic site of the rat brain “noncalmodulin-dependent, cAMP phosphodiesterase” (i.e. PDE IV), a striking anomaly was apparent in the data.

T1 sequence (P27815 1-686 isoform P27815-3): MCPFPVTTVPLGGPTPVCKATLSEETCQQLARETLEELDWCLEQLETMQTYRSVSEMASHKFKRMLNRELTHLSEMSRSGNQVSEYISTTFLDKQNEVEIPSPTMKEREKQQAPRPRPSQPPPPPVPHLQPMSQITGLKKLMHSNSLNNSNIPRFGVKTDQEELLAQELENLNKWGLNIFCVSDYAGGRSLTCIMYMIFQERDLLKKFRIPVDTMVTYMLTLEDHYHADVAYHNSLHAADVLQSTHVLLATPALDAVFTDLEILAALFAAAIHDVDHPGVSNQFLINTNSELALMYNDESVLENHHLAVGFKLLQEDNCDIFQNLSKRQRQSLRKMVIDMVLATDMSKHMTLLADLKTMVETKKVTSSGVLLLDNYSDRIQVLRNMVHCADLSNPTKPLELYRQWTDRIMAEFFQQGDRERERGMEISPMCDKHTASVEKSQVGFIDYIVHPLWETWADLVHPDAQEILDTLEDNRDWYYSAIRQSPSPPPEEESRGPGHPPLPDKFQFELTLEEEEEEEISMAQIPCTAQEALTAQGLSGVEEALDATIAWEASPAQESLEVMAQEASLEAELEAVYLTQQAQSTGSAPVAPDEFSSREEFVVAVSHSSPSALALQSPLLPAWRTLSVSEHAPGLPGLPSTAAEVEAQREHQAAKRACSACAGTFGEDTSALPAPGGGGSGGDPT

SMILES	IC50 [1]	IC50 [2]	High/Low Ratio (IC50 high affinity form divided by IC50 low affinity form) [1]	improvement in therapeutic index in comparison with R-rolipram [3]	side effects [4]	effect on acid secretion (acid secretion)	difference in affinity for the binding site versus effect on catalytic activity [5]
COc1cc2c(cc1OC)-c1c/c(=N\c3c(C)cc(C)cc3C)n(C)c(=O)n1CC2 [trequinsin, 2,3,6,7-tetrahydro-2-(mesitylimino)-9,10 dimethoxy-3-methyl-4H-primido[6,1-a]isoquinoline-4-one, reference compound]	5000 nM						
OCCN(CCO)c1nc(N2CCCCC2)c2nc(N(CCO)CCO)nc(N3CCCCC3)c2n1 [dipyridamole, 2,2′,2″,2′″-[(4,8-dipiperidinopyrimido[5,4-d]pyrimidine-2-6-diyl)dinitrilo]tetraethanol, reference compound]	32500 nM	5200 nM	6.25				
COc1ccc(C2CN(Cc3ccc(N)cc3)C(=O)N2)cc1OC1CCCC1 (stereo not drawn) [1-(4-aminobenzyl)-4-(3-cyclopentyloxy-4-methoxyphenyl)-2-imidazolidinone]	10 nM	1400 nM	0.07				
COc1ccc(CCNC(=O)C(N)=O)cc1OC1CCCC1 [N-[2-(3-cyclopentyloxy-4-methoxyphenyl)ethyl]oxamide]	12 nM	890 nM	0.013				
N#CC1(c2ccc(OC(F)F)c(OCC3CC3)c2)CCC(O)CC1 (stereo not drawn) [cis-[4-cyano-4-(3-cyclopropylmethoxy-4-difluoromethoxyphenyl)cyclohexan-1-ol]]	40 nM	21 nM		100 fold			
COc1ccc(C2CNC(=O)C2)cc1OC1CCCC1 (stereo not drawn) [rolipram]					has psychotropic activity and produces gastrointestinal effects, e.g., pyrosis, nausea and emesis	enhance acid secretion in rats	1000 fold
CCCCn1c(=O)c2c(ncn2CC(C)=O)n(CCCC)c1=O [denbufylline, 7-acetonyl,1,3-dibutylxanthine, reference compound]	50 nM				may include pyrosis, nausea and emesis		
CC(C)Cn1c(=O)n(C)c(=O)c2[nH]cnc21 [IBMX, reference compound]	20300 nM	29100 nM	0.698				
COC(=O)C1CC(C#N)(c2ccc(OC(F)F)c(OCC3CC3)c2)CCC1=O (stereo not drawn) [2-carbomethoxy-4-cyano-4-(3-cyclopropylmethoxy-4-difluoromethoxyphenyl)cyclohexan-1-one]	500 nM	140 nM	3.571	100 fold			
CCCCOc1cc(CC2CNC(=O)N2)ccc1OC (stereo not drawn) [Ro 20-1724]						enhance acid secretion in rats	
COc1ccc(C2CCC(c3nnn[nH]3)C2)cc1OC1CCCC1 (stereo not drawn) [1-(5-tetrazole)-3-(3-cyclopentyloxy-4-methoxyphenyl)cyclopentane]	2 nM	1100 nM	0.0018				
COc1ccc([C@@H]2CC[C@H](C(=O)O)C2)cc1OC1CCCC1 (relative stereo) [cis-[3-(3-cyclopentyloxy-4-methoxyphenyl)cyclopentane-1-carboxylate]]		2700 nM					
COc1ccc(C2CCN(Cc3ccc(NC(=NC#N)SC)cc3)C2=O)cc1OC1CCCC1 (stereo not drawn) [3-(cyclopentyloxy-4-methoxyphenyl)-1-(4-N′-[N2-cyano-S-methyl-isothioureido]benzyl)-2-pyrrolidone]	30 nM	100 nM	0.30				
CCOC(=O)C=C1C[C@@H](c2ccc(OC)c(OC3CCCC3)c2)CN1 [(S)-(-)-ethyl[4-(3-cyclopentyloxy-4-methoxphenyl)pyrrolidine-2-ylidene]acetate]	450 nM	460 nM	.98				
CCOC(=O)C=C1C[C@H](c2ccc(OC)c(OC3CCCC3)c2)CN1 [(R)-(+)-ethyl [4-(3-cyclopentyloxy-4-methoxyphenyl)pyrrolidine-2-ylidene]acetate]	300 nM	140 nM	2.143				
